Results taken from ChEMBL document CHEMBL1909294, “Translating clinical findings into knowledge in drug safety evaluation--drug induced liver injury prediction system (DILIps)” (PLoS Comput Biol, 2011).

Key:
Hepatotoxicity [1] = system: Hepatotoxicity;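 for HepSE bilirubinemia: bilirubinemia hepatic side effect score drawn from the DILIps training data, a prediction system for drug-induced liver injury; call rule not given here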;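 for HepSE cholecystitis: Cholecystitis-related hepatic side effect score drawn from the DILIps (drug-induced liver injury prediction) training data set; call rule not given here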;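 for HepSE cholelithiasis: hepatic side effect score for cholelithiasis, drawn from the DILIps training data for predicting drug-induced liver injury; call rule not given here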;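 for HepSE cirrhosis: cirrhosis hepatic side effect score taken from the DILIps (drug-induced liver injury prediction) training set; call rule not given here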;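 for HepSE elevated liver function tests: hepatic side effect score for raised liver function tests, as recorded in the DILIps training set used for predicting drug-induced liver injury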; for HepSE hepatic failure: call rule not given here;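 for HepSE hepatomegaly: hepatic side effect score for hepatomegaly, taken from the training set of the DILIps drug-induced liver injury prediction system; call rule not given here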
Hepatotoxicity [2] = system: Hepatotoxicity; remark: listed apart in the source;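 for HepSE bilirubinemia: bilirubinemia hepatic side effect score drawn from the DILIps training data, a prediction system for drug-induced liver injury; call rule not given here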;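 for HepSE cholecystitis: Cholecystitis-related hepatic side effect score drawn from the DILIps (drug-induced liver injury prediction) training data set; call rule not given here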;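 for HepSE cholelithiasis: hepatic side effect score for cholelithiasis, drawn from the DILIps training data for predicting drug-induced liver injury; call rule not given here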;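 for HepSE cirrhosis: cirrhosis hepatic side effect score taken from the DILIps (drug-induced liver injury prediction) training set; call rule not given here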;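 for HepSE elevated liver function tests: hepatic side effect score for raised liver function tests, as recorded in the DILIps training set used for predicting drug-induced liver injury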; for HepSE hepatic failure: call rule not given here
Hepatotoxicity [3] = system: Hepatotoxicity; remark: listed apart in the source;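 for HepSE bilirubinemia: bilirubinemia hepatic side effect score drawn from the DILIps training data, a prediction system for drug-induced liver injury; call rule not given here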;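 for HepSE cholecystitis: Cholecystitis-related hepatic side effect score drawn from the DILIps (drug-induced liver injury prediction) training data set; call rule not given here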;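 for HepSE cholelithiasis: hepatic side effect score for cholelithiasis, drawn from the DILIps training data for predicting drug-induced liver injury; call rule not given here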;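 for HepSE cirrhosis: cirrhosis hepatic side effect score taken from the DILIps (drug-induced liver injury prediction) training set; call rule not given here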;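 for HepSE elevated liver function tests: hepatic side effect score for raised liver function tests, as recorded in the DILIps training set used for predicting drug-induced liver injury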; for HepSE hepatic failure: call rule not given here
Hepatotoxicity [4] = system: Hepatotoxicity; remark: listed apart in the source;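 for HepSE bilirubinemia: bilirubinemia hepatic side effect score drawn from the DILIps training data, a prediction system for drug-induced liver injury; call rule not given here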;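 for HepSE cholecystitis: Cholecystitis-related hepatic side effect score drawn from the DILIps (drug-induced liver injury prediction) training data set; call rule not given here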;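 for HepSE cholelithiasis: hepatic side effect score for cholelithiasis, drawn from the DILIps training data for predicting drug-induced liver injury; call rule not given here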;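 for HepSE cirrhosis: cirrhosis hepatic side effect score taken from the DILIps (drug-induced liver injury prediction) training set; call rule not given here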;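 for HepSE elevated liver function tests: hepatic side effect score for raised liver function tests, as recorded in the DILIps training set used for predicting drug-induced liver injury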; for HepSE hepatic failure: call rule not given here
Hepatotoxicity [5] = system: Hepatotoxicity; remark: listed apart in the source; for HepSE hepatic failure: call rule not given here
Hepatotoxicity [6] = system: Hepatotoxicity; remark: listed apart in the source; for HepSE hepatic failure: call rule not given here
Hepatotoxicity [7] = system: Hepatotoxicity; remark: listed apart in the source
Hepatotoxicity [8] = system: Hepatotoxicity; remark: listed apart in the source
Hepatotoxicity [9] = system: Hepatotoxicity; remark: listed apart in the source
Hepatotoxicity [10] = system: Hepatotoxicity; remark: listed apart in the source
Hepatotoxicity [11] = system: Hepatotoxicity; remark: listed apart in the source
Hepatotoxicity [12] = system: Hepatotoxicity; remark: listed apart in the source
Hepatotoxicity [13] = system: Hepatotoxicity; remark: listed apart in the source
Hepatotoxicity [14] = system: Hepatotoxicity; remark: listed apart in the source

Compound | HepSE_bilirubinemia (Hepatotoxicity [1]) | HepSE_cholecystitis (Hepatotoxicity [2]) | HepSE_cholelithiasis (Hepatotoxicity [3]) | HepSE_cirrhosis (Hepatotoxicity [4]) | HepSE_elevated liver function tests (Hepatotoxicity [5]) | HepSE_hepatic failure (Hepatotoxicity [6]) | HepSE_hepatic necrosis (Hepatotoxicity [7]) | HepSE_hepatitis (Hepatotoxicity [8]) | HepSE_hepatomegaly (Hepatotoxicity [9]) | HepSE_jaundice (Hepatotoxicity [10]) | HepSE_liver disease (Hepatotoxicity [11]) | HepSE_liver fatty (Hepatotoxicity [12]) | HepSE_liver function tests abnormal (Hepatotoxicity [13]) | HepSE_Combined Scores (Hepatotoxicity [14])
CN[C@H](CC(C)C)C(=O)N[C@H]1C(=O)N[C@@H](CC(N)=O)C(=O)N[C@H]2C(=O)N[C@H]3C(=O)N[C@H](C(=O)N[C@H](C(=O)O)c4cc(O)cc(O)c4-c4cc3ccc4O)[C@H](O)c3ccc(c(Cl)c3)Oc3cc2cc(c3O[C@@H]2O[C@H](CO)[C@@H](O)[C@H](O)[C@H]2O[C@H]2C[C@](C)(N)[C@H](O)[C@H](C)O2)Oc2ccc(cc2Cl)[C@H]1O [VANCOMYCIN] | 0 | 0 | 0 | 0 | 0 | 0 | 0 | 0 | 0 | 0 | 0 | 0 | 0 | 0
C[C@H]1O[C@@H](O[C@H]2[C@@H](O)C[C@H](O[C@H]3[C@@H](O)C[C@H](O[C@H]4CC[C@@]5(C)[C@H](CC[C@@H]6[C@@H]5C[C@@H](O)[C@]5(C)[C@@H](C7=CC(=O)OC7)CC[C@]65O)C4)O[C@@H]3C)O[C@@H]2C)C[C@H](O)[C@@H]1O [DIGOXIN] | 0 | 0 | 0 | 0 | 0 | 0 | 0 | 0 | 0 | 0 | 0 | 0 | 0 | 0
C[C@H](CS)C(=O)N1CCC[C@H]1C(=O)O [CAPTOPRIL] | 0 | 0 | 0 | 0 | 0 | 0 | 0 | 1 | 0 | 1 | 0 | 0 | 0 | 2
HEPARIN | 0 | 0 | 0 | 0 | 0 | 0 | 0 | 0 | 0 | 0 | 1 | 0 | 0 | 1
N=C(N)NC(=O)c1nc(Cl)c(N)nc1N [AMILORIDE] | 0 | 0 | 0 | 0 | 0 | 0 | 0 | 0 | 0 | 1 | 1 | 0 | 0 | 2
Cc1cn([C@H]2C[C@H](N=[N+]=[N-])[C@@H](CO)O2)c(=O)[nH]c1=O [ZIDOVUDINE] | 1 | 0 | 0 | 0 | 0 | 0 | 0 | 1 | 1 | 1 | 0 | 0 | 0 | 4
O=P(O)(O)C(Cl)(Cl)P(=O)(O)O [CLODRONIC ACID] | 0 | 0 | 0 | 0 | 0 | 0 | 0 | 0 | 0 | 0 | 1 | 0 | 0 | 1
N#Cc1ccc(C(c2ccc(C#N)cc2)n2cncn2)cc1 [LETROZOLE] | 0 | 0 | 0 | 0 | 0 | 0 | 0 | 0 | 0 | 0 | 0 | 0 | 0 | 0
O=C(O)P(=O)(O)O [FOSCARNET] | 0 | 0 | 0 | 0 | 0 | 0 | 0 | 0 | 0 | 0 | 0 | 0 | 0 | 0
OCc1cc(C(O)CNCCCCCCOCCCCc2ccccc2)ccc1O (stereo not drawn) [SALMETEROL] | 0 | 0 | 0 | 0 | 0 | 0 | 0 | 0 | 0 | 0 | 0 | 0 | 0 | 0
O=C(CO)[C@@H](O)[C@@H](O)COP(=O)(O)O | 0 | 0 | 0 | 0 | 0 | 0 | 0 | 0 | 0 | 0 | 0 | 0 | 0 | 0
CCCN1CCCC[C@H]1C(=O)Nc1c(C)cccc1C [ROPIVACAINE] | 0 | 0 | 0 | 0 | 0 | 0 | 0 | 0 | 0 | 1 | 0 | 0 | 0 | 1
CC[C@H]1OC(=O)[C@H](C)[C@@H](O[C@H]2C[C@@](C)(OC)[C@@H](O)[C@H](C)O2)[C@H](C)[C@@H](O[C@@H]2O[C@H](C)C[C@H](N(C)C)[C@H]2O)[C@](C)(O)C[C@@H](C)CN(C)[C@H](C)[C@@H](O)[C@]1(C)O [AZITHROMYCIN] | 0 | 0 | 0 | 0 | 0 | 1 | 1 | 1 | 0 | 1 | 0 | 0 | 1 | 5
CC[C@@]1(O)C(=O)OCc2c1cc1n(c2=O)Cc2cc3c(CN(C)C)c(O)ccc3nc2-1 [TOPOTECAN] | 1 | 0 | 0 | 0 | 0 | 0 | 0 | 0 | 0 | 0 | 0 | 0 | 0 | 1
O=C(c1ccc(OCCN2CCCCC2)cc1)c1c(-c2ccc(O)cc2)sc2cc(O)ccc12 [RALOXIFENE] | 0 | 0 | 1 | 0 | 0 | 0 | 0 | 0 | 0 | 0 | 0 | 0 | 0 | 1
CC(C)(C)NC[C@H](O)COc1ccccc1C1CCCC1 [PENBUTOLOL] | 0 | 0 | 0 | 0 | 0 | 0 | 0 | 0 | 0 | 0 | 0 | 0 | 0 | 0
C[C@]12CCC(=O)C=C1CC[C@H]1[C@@H]3CC[C@](O)(C(=O)CO)[C@@]3(C)C[C@H](O)[C@@]12F [FLUDROCORTISONE] | 0 | 0 | 0 | 0 | 0 | 0 | 0 | 0 | 0 | 0 | 0 | 0 | 0 | 0
